Measured values from patent publication US9708334B2, “Substituted 2,4,5,6-tetrahydropyrrolo[3,4-c]pyrazole and 4,5,6,7-tetrahydro-2H-pyrazolo[4,3-c]pyridine compounds as GlyT1 inhibitors” (DART NEUROSCIENCE (CAYMAN) LTD., priority 2014, dated 2017).

Molecular target: T1, GlyT1 (Homo sapiens, UniProt P48067)
T1 construct: expressed in transfected cells
T1 sequence (P48067 1-706): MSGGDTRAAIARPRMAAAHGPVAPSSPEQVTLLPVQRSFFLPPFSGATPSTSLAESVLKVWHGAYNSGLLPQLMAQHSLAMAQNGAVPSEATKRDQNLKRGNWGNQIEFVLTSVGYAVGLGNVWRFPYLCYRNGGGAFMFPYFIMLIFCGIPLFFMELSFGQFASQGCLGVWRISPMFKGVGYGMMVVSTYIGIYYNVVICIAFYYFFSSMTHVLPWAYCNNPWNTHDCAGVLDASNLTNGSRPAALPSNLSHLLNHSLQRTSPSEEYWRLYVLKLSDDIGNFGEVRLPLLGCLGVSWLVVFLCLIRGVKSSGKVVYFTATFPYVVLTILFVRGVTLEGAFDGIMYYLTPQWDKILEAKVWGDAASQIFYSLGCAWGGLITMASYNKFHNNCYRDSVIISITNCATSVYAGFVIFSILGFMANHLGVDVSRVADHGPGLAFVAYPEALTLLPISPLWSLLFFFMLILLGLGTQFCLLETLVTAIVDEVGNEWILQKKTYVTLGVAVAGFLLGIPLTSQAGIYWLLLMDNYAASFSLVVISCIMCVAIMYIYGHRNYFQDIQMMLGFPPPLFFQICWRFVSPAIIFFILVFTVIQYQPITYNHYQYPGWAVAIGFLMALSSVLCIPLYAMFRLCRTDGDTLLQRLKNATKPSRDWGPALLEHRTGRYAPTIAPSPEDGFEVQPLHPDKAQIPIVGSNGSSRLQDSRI
Assay: Glycine Transporter 1 (GlyT1) uptake assay, scintillation proximity assay of [14C]-glycine uptake
Assay type: cell-based
Details: SPA, four parameter logistic fit, read-out: GlyT1 (pIC50) (converted)
In short: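 [14C]-glycine uptake read by scintillation proximity on a plate counter. IC50 from four-parameter logistic fit of dose-response data.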

SMILES | IC50 [nM]
COc1c(C#N)ccc(O[C@@H](C)C(F)(F)F)c1C(=O)N1Cc2cn(-c3c(C)nn(C)c3C)nc2C1 [Example 306, 2-Methoxy-4-{[(2S)-1 1 1-trifluoropropan-2-yl]oxy}-3-[2-(trimethyl-1H-pyrazol-4-yl)-2H 4H 5H 6H-pyrrolo[3,4-c]pyrazole-5-carbonyl]benzonitrile] | 100 to 1000
Cc1nn(C)c(C)c1-n1cc2c(n1)CN(C(=O)c1c(O[C@@H](C)C(F)(F)F)ccc(C#N)c1Cl)C2 [Example 307, 2-Chloro-4-{[(2S)-1 1 1-trifluoropropan-2-yl]oxy}-3-[2-(trimethyl-1H-pyrazol-4-yl)-2H 4H 5H 6H-pyrrolo[3,4-c]pyrazole-5-carbonyl]benzonitrile] | 100 to 1000
COc1c(C#N)ccc(OCC(F)(F)F)c1C(=O)N1Cc2cn(-c3ccnc(C)c3)nc2C1 [Example 308, 2-Methoxy-3-[2-(2-methylpyridin-4-yl)-2H 4H 5H 6H-pyrrolo[3,4-c]pyrazole-5-carbonyl]-4-(2 2 2-trifluoroethoxy)benzonitrile] | < 100
COc1c(C#N)ccc(O[C@@H](C)C(F)(F)F)c1C(=O)N1Cc2cnn(-c3ccnc(C)c3)c2C1 [Example 309] | < 100
Cc1cc(-n2ncc3c2CN(C(=O)c2c(O[C@@H](C)C(F)(F)F)ccc(C#N)c2Cl)C3)ccn1 [Example 310, 2-Chloro-3-[1-(2-methylpyridin-4-yl)-1H 4H 5H 6H-pyrrolo[3,4-c]pyrazole-5-carbonyl]-4-{[(2S)-1 1 1-trifluoropropan-2-yl]oxy}benzonitrile] | < 100
COc1c(C#N)ccc(OCC(F)(F)F)c1C(=O)N1Cc2cn(-c3cncc(F)c3)nc2C1 [Example 311, 3-[2-(5-Fluoropyridin-3-yl)-2H 4H 5H 6H-pyrrolo[3,4-c]pyrazole-5-carbonyl]-2-methoxy-4-(2 2 2-trifluoroethoxy)benzonitrile] | < 100
COc1c(C#N)ccc(OCC(F)(F)F)c1C(=O)N1Cc2cn(-c3ncccc3F)nc2C1 [Example 312, 3-[2-(3-Fluoropyridin-2-yl)-2H 4H 5H 6H-pyrrolo[3,4-c]pyrazole-5-carbonyl]-2-methoxy-4-(2 2 2-trifluoroethoxy)benzonitrile] | < 100
COc1ncc(F)cc1-n1cc2c(n1)CN(C(=O)c1c(O[C@@H](C)C(F)(F)F)ccc(C#N)c1OC)C2 [Example 313, 3-[2-(5-Fluoro-2-methoxypyridin-3-yl)-2H 4H 5H 6H-pyrrolo[3,4-c]pyrazole-5-carbonyl]-2-methoxy-4-{[(2 S)-1 1 1-trifluoropropan-2-yl]oxy}benzonitrile] | < 100
COc1ncc(F)cc1-n1cc2c(n1)CN(C(=O)c1c(O[C@@H](C)C(F)(F)F)ccc(C#N)c1Cl)C2 [Example 314, 2-Chloro-3-[2-(5-fluoro-2-methoxypyridin-3-yl)-2H 4H 5H 6H-pyrrolo[3,4-c]pyrazole-5-carbonyl]-4-{[(2S)-1 1 1-trifluoropropan-2-yl]oxy}benzonitrile] | < 100
COc1ncc(-n2ncc3c2CN(C(=O)c2c(O[C@@H](C)C(F)(F)F)ccc(C#N)c2OC)C3)cc1F [Example 315, 3-[1-(5-Fluoro-6-methoxypyridin-3-yl)-1H 4H 5H 6H-pyrrolo[3,4-c]pyrazole-5-carbonyl]-2-methoxy-4-{[(2 S)-1 1 1-trifluoropropan-2-yl]oxy}benzonitrile] | 100 to 1000
COc1ncc(-n2cc3c(n2)CN(C(=O)c2c(O[C@@H](C)C(F)(F)F)ccc(C#N)c2OC)C3)cc1F [Example 316, 3-[2-(5-Fluoro-6-methoxypyridin-3-yl)-2H 4H 5H 6H-pyrrolo[3,4-c]pyrazole-5-carbonyl]-2-methoxy-4-{[(2S)-1 1 1-trifluoropropan-2-yl]oxy}benzonitrile] | < 100
COc1c(C#N)ccc(OCC2CC2)c1C(=O)N1Cc2cn(-c3ccc(F)cc3)nc2C1 [Example 317, 4-(Cyclopropylmethoxy)-3-[2-(4-fluorophenyl)-2H 4H 5H 6H-pyrrolo[3,4-c]pyrazole-5-carbonyl]-2-methoxybenzonitrile] | < 100
COc1c(C#N)ccc(OCC2CC2)c1C(=O)N1Cc2cn(-c3ccc(F)cn3)nc2C1 [Example 318, 4-(Cyclopropylmethoxy)-3-[2-(5-fluoropyridin-2-yl)-2H 4H 5H 6H-pyrrolo[3,4-c]pyrazole-5-carbonyl]-2-methoxybenzonitrile] | < 100
COc1c(C#N)ccc(OCC2CC2)c1C(=O)N1Cc2cn(-c3cncc(F)c3)nc2C1 [Example 319, 4-(Cyclopropylmethoxy)-3-[2-(5-fluoropyridin-3-yl)-2H 4H 5H 6H-pyrrolo[3,4-c]pyrazole-5-carbonyl]-2-methoxybenzonitrile] | < 100
COc1c(C#N)ccc(OCC(C)(C)C)c1C(=O)N1Cc2cn(-c3ccc(F)cn3)nc2C1 [Example 320, 4-(2 2-Dimethylpropoxy)-3-[2-(5-fluoropyridin-2-yl)-2H 4H 5H 6H-pyrrolo[3,4-c]pyrazole-5-carbonyl]-2-methoxybenzonitrile] | < 100
COc1c(C#N)ccc(OCC(C)(C)C)c1C(=O)N1Cc2cn(-c3cncc(F)c3)nc2C1 [Example 321, 4-(2 2-Dimethylpropoxy)-3-[2-(5-fluoropyridin-3-yl)-2H 4H 5H 6H-pyrrolo[3,4-c]pyrazole-5-carbonyl]-2-methoxybenzonitrile] | < 100
COc1c(C#N)ccc(O[C@@H](C)C(F)(F)F)c1C(=O)N1Cc2cn(-c3ccccc3)nc2C1 [Example 322] | < 100
COc1c(C#N)ccc(OC(C)C)c1C(=O)N1Cc2cn(-c3ccccc3)nc2C1 [Example 323, 2-Methoxy-3-{2-phenyl-2H 4H 5H 6H-pyrrolo[3,4-c]pyrazole-5-carbonyl}-4-(propan-2-yloxy)benzonitrile] | < 100
COc1c(C#N)ccc(OC(C)C)c1C(=O)N1Cc2cn(-c3ccc(F)cn3)nc2C1 [Example 324, 3-[2-(5-Fluoropyridin-2-yl)-2H 4H 5H 6H-pyrrolo[3,4-c]pyrazole-5-carbonyl]-2-methoxy-4-(propan-2-yloxy)benzonitrile] | < 100
COc1c(C#N)ccc(OC(C)C)c1C(=O)N1Cc2cn(-c3cncc(F)c3)nc2C1 [Example 325, 3-[2-(5-Fluoropyridin-3-yl)-2H 4H 5H 6H-pyrrolo[3,4-c]pyrazole-5-carbonyl]-2-methoxy-4-(propan-2-yloxy)benzonitrile] | < 100
COc1c(C#N)ccc(OC(C)C)c1C(=O)N1Cc2cn(-c3cccc(C)n3)nc2C1 [Example 326, 2-Methoxy-3-[2-(6-methylpyridin-2-yl)-2H 4H 5H 6H-pyrrolo[3,4-c]pyrazole-5-carbonyl]-4-(propan-2-yloxy)benzonitrile] | < 100
C[C@H](Oc1ccc(C#N)c(Cl)c1C(=O)N1Cc2cn(-c3ccccc3)nc2C1)C(F)(F)F [Example 327, 2-Chloro-3-{2-phenyl-2H 4H 5H 6H-pyrrolo[3,4-c]pyrazole-5-carbonyl}-4-{[(2S)-1 1 1-trifluoropropan-2-yl]oxy}benzonitrile] | < 100
COc1c(C#N)ccc(OC(C)C)c1C(=O)N1Cc2cn(-c3ccnc(C)c3)nc2C1 [Example 328, 2-Methoxy-3-[2-(2-methylpyridin-4-yl)-2H 4H 5H 6H-pyrrolo[3,4-c]pyrazole-5-carbonyl]-4-(propan-2-yloxy)benzonitrile] | < 100
COc1c(C#N)ccc(OCC(F)F)c1C(=O)N1Cc2cn(-c3ccccc3)nc2C1 [Example 329, 4-(2 2-Difluoroethoxy)-2-methoxy-3-{2-phenyl-2H 4H 5H 6H-pyrrolo{3,4-c]pyrazole-5-carbonyl}benzonitrile] | < 100
COc1c(C#N)ccc(OCC(F)F)c1C(=O)N1Cc2cn(-c3ccc(F)cn3)nc2C1 [Example 330, 4-(2 2-Difluoroethoxy)-3-[2-(5-fluoropyridin-2-yl)-2H 4H 5H 6H-pyrrolo[3,4-c]pyrazole-5-carbonyl]-2-methoxybenzonitrile] | 100 to 1000
COc1c(C#N)ccc(OCC(F)F)c1C(=O)N1Cc2cn(-c3cncc(F)c3)nc2C1 [Example 331, 4-(2 2-Difluoroethoxy)-3-[2-(5-fluoropyridin-3-yl)-2H 4H 5H 6H-pyrrolo[3,4-c]pyrazole-5-carbonyl]-2-methoxybenzonitrile] | < 100
COc1c(C#N)ccc(OCC(F)F)c1C(=O)N1Cc2cn(-c3cccc(C)n3)nc2C1 [Example 332, 4-(2 2-Difluoroethoxy)-2-methoxy-3-[2-(6-methylpyridin-2-yl)-2H 4H 5H 6H-pyrrolo[3,4-c]pyrazole-5-carbonyl]benzonitrile] | < 100
COc1c(C#N)ccc(OCC(F)F)c1C(=O)N1Cc2cn(-c3ccnc(C)c3)nc2C1 [Example 333, 4-(2 2-Difluoroethoxy)-2-methoxy-3-[2-(2-methylpyridin-4-yl)-2H 4H 5H 6H-pyrrolo[3,4-c]pyrazole-5-carbonyl]benzonitrile] | 100 to 1000
CC(C)Oc1ccc(C#N)cc1C(=O)N1Cc2cn(-c3ccccc3)nc2C1 [Example 334, 3-{2-Phenyl-2H 4H 5H 6H-pyrrolo[3,4-c]pyrazole-5-carbonyl}-4-(propan-2-yloxy)benzonitrile] | < 100
